# Test results taken from the kinase profiling compilation of Christmann-Franck et al. (2016).
# pKi: −log10 of the molar value.
# Target: SGK1 (human) (UniProt O00141)
# Experiment: Flashplate
# Chain of SGK1 (human) (O00141 whole entry, looked up): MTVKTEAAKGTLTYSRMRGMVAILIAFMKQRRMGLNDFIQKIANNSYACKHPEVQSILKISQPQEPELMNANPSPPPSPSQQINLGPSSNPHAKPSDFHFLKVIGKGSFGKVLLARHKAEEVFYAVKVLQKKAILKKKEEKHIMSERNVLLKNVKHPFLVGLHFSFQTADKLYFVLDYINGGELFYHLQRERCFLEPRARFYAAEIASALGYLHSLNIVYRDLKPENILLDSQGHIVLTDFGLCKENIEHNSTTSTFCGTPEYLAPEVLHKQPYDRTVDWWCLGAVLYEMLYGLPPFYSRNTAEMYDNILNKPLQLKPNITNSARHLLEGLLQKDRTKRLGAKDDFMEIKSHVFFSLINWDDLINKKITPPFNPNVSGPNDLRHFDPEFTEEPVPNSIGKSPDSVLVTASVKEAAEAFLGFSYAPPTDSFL
row,Structure (SMILES),pKi
1,CCc1c(-c2ccc(C(C)(C)O)cc2)[nH]c2nccnc12,< 5.00
2,CCOc1nc(NC(C)=O)cc(N)c1C#N,< 5.00
3,CN(c1ncccc1CNc1nc(Nc2ccc3c(c2)CC(=O)N3)ncc1C(F)(F)F)S(C)(=O)=O,5.60
4,Cc1cc(C)cc(NC(=O)Nc2ccc(-c3c(C)sc4ncnc(N)c34)cc2)c1,5.10
5,Cc1cc(Nc2cc(N3CCN(C)CC3)nc(/C=C/c3ccccc3)n2)n[nH]1,< 5.00
6,Cc1n[nH]c2ncc(C#N)c(-c3ccccc3)c12,5.40
7,Cc1nc2ccc(NS(=O)(=O)c3ccc(N)cc3)cc2nc1C,< 5.00
8,COc1cc(/C=C(\C#N)c2nc3cc(C)ccc3[nH]2)c(Br)cc1O,5.30
9,COc1cc(/C=C2\SC(=O)NC2=O)ccc1O,5.40
10,O=C(N[C@H](CO)c1ccccc1)N1CC=C(c2c[nH]c3ncccc23)CC1,6.40
11,Cc1c(C=O)c(O)n2c(nc3ccccc32)c1C#N,< 5.00
12,N[C@H](COc1cncc(-c2ccc3c(c2)CC(=O)N3)c1)Cc1c[nH]c2ccccc12,5.90
13,N[C@@H](Cc1cccc2ccccc12)C(=O)Nc1cncc(/C=C/c2ccncc2)c1,< 5.00
14,CC(=O)N1CCC(Nc2nccc(-c3c(-c4ccc(F)cc4)nc4occn34)n2)CC1,< 5.00
15,Cc1cc2nnc(SCc3cn4ccccc4n3)n2c2ccccc12,< 5.00
16,Cc1cccc(NC(=O)Nc2ccc(-c3csc4c(C#CCCCCCCCCN)cnc(N)c34)cc2)c1,5.70
17,Cc1cccc(Nc2nc(N[C@@H]3CCCC[C@@H]3N)cnc2C(N)=O)c1,< 5.10
18,CN1CCN(c2cccc(Nc3nccc(-c4c(C(N)=O)nc5ccccn45)n3)c2)CC1,< 5.00
19,Cc1n[nH]c2c1C(c1ccccc1F)C1=C(CC(C)(C)CC1=O)N2 (stereo not given),< 5.00
20,COc1cc(-c2ccc3[nH]nc(C(=O)Nc4ccccc4)c3c2)ccc1O,< 5.00
21,Cc1cccc(NC(=O)Nc2ccc(-c3csc4c(C#CC(C)(C)N)cnc(N)c34)cc2)c1,5.50
22,OCCCNc1ncnc2[nH]cc(-c3ccccc3)c12,< 5.10
23,C[C@@H](N)C1CCC(C(=O)Nc2ccncc2)CC1 (stereo not given in full),< 5.00
24,C[C@H](Nc1c(Nc2ccncc2)c(=O)c1=O)c1ccccc1,< 5.00
25,Cn1cc(C(CN)c2cncc(/C=C/c3ccncc3)c2)c2ccccc21 (stereo not given),< 5.00

row,Structure (SMILES),pKi
1,Cc1cccc(NC(=O)Nc2ccc(-c3cnc4c(-c5cnn(C)c5)cnn4c3N)cc2)c1,5.20
2,C[C@@H](N)C1CCC(C(=O)Nc2ccnc3[nH]ccc23)CC1 (stereo not given in full),< 5.00
3,Cc1nc2ccccn2c1-c1csc(Nc2ccc(O)cc2)n1,< 5.00
4,CCOc1nc(C(=O)NCc2ccc(S(N)(=O)=O)cc2)cc(N)c1C#N,< 5.00
5,CC(C)c1nnc2ccc(-c3c(-c4ccc(F)cc4F)nc4n3CCC4)nn12,< 5.00
6,CC(C)(CO)CNc1nccc(-c2c(-c3ccc(F)cc3)nc3c(CCN)nccn23)n1,< 5.00
7,CC(C)(CO)CNc1nccc(-c2c(-c3ccc(F)cc3)nc3c(Cl)nccn23)n1,< 5.00
8,CC(=O)Nc1cc(N)c(C#N)c(-c2ccccc2)n1,< 5.00
9,Cc1ccccc1-c1c(C(=O)O)n(CCCOc2cccc3ccccc23)c2ccccc12,< 5.00
10,O=C1Cc2c([nH]c3ccc(Br)cc23)-c2ncccc2N1,< 5.00
11,COc1cccc([C@@H](C)NC(=O)c2ccc(-c3ccncc3)cc2NCCCN)c1,6.40
12,CN(c1ccccc1CNc1nc(N)nc2[nH]ccc12)S(C)(=O)=O,< 5.00
13,CCn1c(C)c(-c2ccnc(Nc3cccc(OC)c3)n2)sc1=O,6.50
14,Nc1c(-c2ccc(NC(=O)Nc3cccc(C(F)(F)F)c3)cc2)ccc2nccnc12,< 5.00
15,Cc1cc(OC2CCCC2)c(NC(=O)Nc2cnc(C#N)cn2)cc1Cl,< 5.00
16,CCOc1ccc(NC(=O)Nc2ccc(-c3csc4c(-c5cnn(C)c5)cnc(N)c34)cc2)cc1,< 5.00
17,Nc1nccc2scc(-c3ccc(NC(=O)Nc4cccc(F)c4)cc3)c12,< 5.00
18,O=C1NCCc2[nH]c(-c3ccnc(-c4cnc5ccccc5c4)c3)cc21,< 5.00
19,CSc1nn(-c2ccccn2)c(N)c1C(N)=O,5.20
20,C[C@H](Nc1nccc(-c2c(-c3ccc(F)cc3)nc3occn23)n1)c1ccccc1,< 5.00
21,COc1cc(-c2ccc3c(c2)Nc2ccc(CCOc4ccc(N5CCOCC5)cc4)cc2NC3=O)ccc1OCC(O)CO (stereo not given),< 5.00
22,O=C1Cc2c([nH]c3ccc(Br)cc23)-c2ccccc2N1,< 5.00
23,CC(C)n1nnc2ccc(-c3c(-c4ccc(F)cc4F)nc4occn34)cc21,< 5.00
24,O=C(Cc1ccccc1)Nc1cccc(-c2nc3sccn3c2-c2ccnc(Nc3cccc(N4CCOCC4)c3)n2)c1,< 5.00
25,Cc1ccc(C(=O)Nc2ccon2)cc1Nc1ncnc2c1cnn2-c1ccccc1,< 5.00

row,Structure (SMILES),pKi
1,Cc1cccc(NC(=O)Nc2ccc(-c3csc4c(C#CCN5CCCC5)cnc(N)c34)cc2)c1,5.30
2,CCOC(=O)C1=C(N)n2c(s/c(=C\c3cccs3)c2=O)=C(C(N)=O)C1c1cccs1 (stereo not given),< 5.00
3,O=C1CCCN1Cc1ccc2c(c1)[nH]c(=O)c1cccn12,< 5.00
4,CN(C)c1ccc(CNC(=O)c2cc3c(-c4ccccc4)n[nH]c3s2)cc1,5.10
5,Nc1ncnc2c1sc1ncnc(N)c12,6.80
6,CCN1CCN(Cc2ccc(NC(=O)Nc3ccc(Oc4cc(NC)ncn4)cc3)cc2C(F)(F)F)CC1,< 5.20
7,Cn1cc(-c2cnn3c(N)c(-c4ccc(NC(=O)Nc5cccc(C(F)(F)F)c5)cc4)cnc23)cn1,< 5.00
8,NC(=O)c1sc2c(Br)ccc(Cl)c2c1N,5.50
9,Cc1n[nH]c2cnc(-c3cncc(OC[C@@H](N)Cc4cccc(C(F)(F)F)c4)c3)cc12,7.20
10,N#CC1=C(N)n2c(s/c(=C\c3ccco3)c2=O)=C(C(N)=O)C1c1ccco1 (stereo not given),< 5.00
11,COC(=O)c1cc2c(-c3cccc(F)c3)cncc2s1,< 5.00
12,Nc1ncnc2c1c(I)nn2[C@@H]1O[C@H](CO)[C@@H](O)[C@H]1O,< 5.00
13,Cc1cccc(C2(c3cccc(C)c3)CC2C(=O)Nc2ccncc2)c1 (stereo not given),< 5.00
14,NCCC(C(=O)Nc1ccc2[nH]ncc2c1)c1ccc(Cl)c(Cl)c1 (stereo not given),7.70
15,Cc1cc(Nc2ncc(F)c(N[C@H]3[C@@H](C(N)=O)[C@@H]4C=C[C@H]3C4)n2)ccc1N1CCN(C)CC1,5.80
16,CNC(=O)COc1ccc(Nc2nc(Nc3ccc(C)c(S(N)(=O)=O)c3)ncc2F)cc1,< 5.00
17,O=C(c1cccc(-c2cnc3[nH]ccc3c2)c1)N1CCOCC1,< 5.00
18,O=C1Nc2cc(CCOc3ccc(N4CCOCC4)cc3)ccc2Nc2cc(-c3cn(Cc4cc(F)c(F)c(F)c4)c4cnccc34)ccc21,< 5.00
19,N#Cc1ccc2nc(N)n(-c3nc(-c4ccccc4)cs3)c2c1,< 5.00
20,O=C(NCCCCCCNC(=O)Nc1cccnc1)Nc1cccnc1,< 5.00
21,CNC(=O)c1cc2c(-c3ccccc3F)n[nH]c2s1,5.50
22,COc1cc(C)c(Cl)cc1NC(=O)Nc1cnc(C#N)cn1,< 5.00
23,O=c1cc(-c2ccncc2)nc(NC2CCCCC2)[nH]1,< 5.00

# Second part, the compound after the results:
row,pKi,Structure (SMILES)
1,< 5.00,COCCn1cc(-c2ccncn2)c(-c2ccc(Cl)cc2)n1
2,< 5.00,CN(C)CC(C)(C)CNc1nccc(-c2c(-c3ccc(F)cc3)nc3cnccn23)n1
3,< 5.00,O=c1[nH]c2cc(-c3ccccc3)cnc2[nH]1
4,6.00,O=S(=O)(NCCNC/C=C/c1ccc(Br)cc1)c1cccc2cnccc12
5,< 5.00,Cc1ccc(-c2cnc(N)c3c(-c4ccc(NC(=O)Nc5cccc(F)c5)cc4)csc23)cn1
6,5.20,Cc1cnc(Nc2cccc(S(N)(=O)=O)c2)nc1Nc1ccc(OCC(N)=O)cc1
7,< 5.00,Cc1cc(C)cc(NC(=O)Nc2ccc(-c3cccc4c3CNC4=O)c(C)c2)c1
8,5.30,Nc1n[nH]c2cccc(-c3ccc(Br)cc3)c12
9,7.80,O=C1Nc2ccc3ncsc3c2/C1=C/Nc1ccc(S(=O)(=O)Nc2ccccn2)cc1
10,< 5.00,CNS(=O)(=O)c1ccccc1Nc1nc(Nc2cc(N3CCN(C(C)=O)CC3)ccc2OC)ncc1Br
11,< 5.00,O=C(c1cc(Cc2n[nH]c(=O)c3c2CCCC3)ccc1F)N1CCN(c2ncccn2)CC1
12,< 5.00,CCOc1nc(NC(=O)Cc2cc(OC)c(S(C)(=O)=O)cc2OC)cc(N)c1Cl
13,< 5.00,Cc1cc(-c2ccccc2)n(-c2cc(N/N=C/c3ccco3)ncn2)n1
14,< 5.00,CC(C)(CO)CNc1nccc(-c2c(-c3ccc(F)cc3)nc3cnccn23)n1
15,6.50,COc1cccc([C@@H](C)NC(=O)c2ccc(-c3ccncc3)c(F)c2)c1
16,5.80,c1ccc(Cc2cc(-c3ccc4[nH]ncc4c3)on2)cc1
17,< 5.00,Cc1ccc(NC(=O)Nc2ccc(NC(=O)c3csc4ncnc(N)c34)cc2)cc1
18,6.60,Cc1nc(N)sc1-c1ccnc(Nc2ccc(N3CCOCC3)cc2)n1
19,< 5.00,Nc1ncc(/C=C/C(=O)NCCCn2ccnc2)c2scc(-c3ccc(Br)cc3)c12

row,pKi,Structure (SMILES)
1,5.80,COCCN(C)C(=O)c1c(-c2ccc3[nH]ncc3c2)nnn1Cc1ccccc1
2,< 5.00,O=C(O)c1cc2c(-c3cccc(F)c3)cncc2s1
3,5.10,NCCCOc1cc2c(c(-c3ccc(Nc4nc5ccccc5o4)cc3)c1)CNC2=O
4,< 5.00,OCCNc1cc2cc(-c3ccncc3)ccc2cn1
5,< 5.30,CNS(=O)(=O)c1ccccc1Nc1nc(Nc2cc(OC)c(OC)c(OC)c2)ncc1Cl
6,< 5.00,O=C(Nc1ccc2[nH]ncc2c1)c1cccc(F)c1
7,< 5.00,N[C@H](COc1cncc(/C=C/c2ccncc2)c1)Cc1ccccc1
8,5.80,NC1CCCCC1Nc1nccc(-c2c[nH]c3ncccc23)n1 (stereo not given)
9,< 5.00,CCCC(=O)Nc1n[nH]c2ccc(-c3cccc(F)c3F)cc12
10,< 5.00,O=C(CO)N1CCC(c2[nH]nc(-c3ccc(Cl)cc3F)c2-c2ccncn2)CC1
11,< 5.00,Cc1ccccc1NC(=O)Nc1ccc(NC(=O)c2csc3ncnc(N)c23)cc1
12,< 5.10,CS(=O)c1ccc(-c2nc(-c3ccc(F)cc3)c(-c3ccncc3)[nH]2)cc1 (stereo not given)
13,< 5.00,NC(=O)Cn1cc(-c2cc(-c3cc4ccccc4s3)c3[nH]ncc3c2)c2nc(N)ncc21
14,6.10,Clc1cc(-c2c[nH]c3ncccc23)nc(NC2CCCCC2)n1
15,< 5.00,CSc1ccc2nc3c(c(Cl)c2c1)CCNC3=O
16,6.10,O=c1c(NCc2ccccc2F)c(Nc2ccncc2)c1=O
17,< 5.00,CCCn1cc(-c2cnc(N)c3c(-c4ccc(NC(=O)Nc5cccc(F)c5)cc4)csc23)cn1
18,< 5.00,COCCNc1nccc(-c2c(-c3ccc(F)cc3)nc3cnccn23)n1
